Assay results published in US20040229356A1, “In vitro mass production of human erythroid cells from the blood of normal donors and thalassemic patients” (ISTITUTO SUPERIORE DI SANITA, priority 2003, published 2004).

Legend:
CD34^+ cells [1] = assay: Proliferative-phase liquid culture of CD34+ cells (total cell number, benzidine staining); type: cell-based, human; conditions: day 8 of proliferative phase; estradiol or dexamethasone added to GFs (SCF, IL-3, EPO)
Procedure: Light-density cells were collected, washed with Hank's basal salt solution supplemented with 1% (w/v) bovine serum albumin, and either cultured directly or cryopreserved in 10% dimethyl sulfoxide (Sigma, St. Louis, Mo.). Frozen cadaveric marrow cells obtained from Northwest Tissue Center, Puget Sound Blood Bank (Seattle, Wash.) were thawed, washed, and incubated overnight in IMDM with 10% fetal calf serum on tissue culture plates to remove adherent cells. […]
Cell morphology was analyzed according to standard criteria on cytocentrifuged (Shandon, Astmoor, England) smears stained with May-Grumwald-Giemsa. […] The cell antigenic profile was analyzed by flow cytometry with a Coulter Elite ESP Cell Sorter (Coulter, Miami, Fla.) according to standard protocols. […] Cells incubated with the corresponding, irrelevant, isotype-matched antibodies were used for gating nonspecific fluorescence and dead cells were excluded by propidium iodide staining (5 μg/mL) (Sigma).
The total cell number observed in cultures of CD34^+ cells cultured for up to 14 days in the presence of the combination of SCF, IL-3 and EPO (growth factors, GFs), alone or with the further addition of estradiol or of dexamethasone, is presented in FIG. 1. In all three conditions analyzed, the total cell number per culture rose from 0.1×10^6 cells at day 0 to 10×10^6 at day 7 and continued to increase, reaching up to 100×10^6 by day 13. […]

CD34^+ cells [2] = assay: Differentiative-phase culture (EPO and insulin, 5 additional days) of cells harvested from the proliferative phase, benzidine staining; type: cell-based, human; conditions: for frequency of benzidine^pos cells after differentiative phase: independent of priming duration (either 8 or 13 days) with GFs plus the steroid, then EPO and insulin
Procedure: Light-density cells and CD34^+ cells were cultured for the proliferative phase in Iscove's modified Dulbecco's medium (IMDM, Mascia Brunelli, Milan, Italy) containing 20% of fetal bovine serum (FBS, Hyclone, Logan, Utah) and supplemented with Stem Cell Factor (SCF, 10 ng/mL) (Amgen, Thousand Oaks, Calif.), Erythropoietin (EPO, 1 u/mL) (Epoetina alfa, Dompe Biotec, Milan, Italy), Interleukin-3 (IL-3, 1 ng/mL) (Bouty, Milan, Italy), dexamethasone (10^−6 M) (Sigma), and estradiol (10^−6 M) (Sigma). Light-density and CD34^+ cells were seeded at a concentration of 10^6 and 10^5 cells/mL, respectively.
Cell morphology was analyzed according to standard criteria on cytocentrifuged (Shandon, Astmoor, England) smears stained with May-Grumwald-Giemsa. Hemoglobin-containing cells were identified by benzidine staining (S. H. Orkin, Proc. Natl. Acad. Sci. USA 72, 98-102 (1975)). The cell antigenic profile was analyzed by flow cytometry with a Coulter Elite ESP Cell Sorter (Coulter, Miami, Fla.) according to standard protocols. […] Cells incubated with the corresponding, irrelevant, isotype-matched antibodies were used for gating nonspecific fluorescence and dead cells were excluded by propidium iodide staining (5 μg/mL) (Sigma).
The total cell number observed in cultures of CD34^+ cells cultured for up to 14 days in the presence of the combination of SCF, IL-3 and EPO (growth factors, GFs), alone or with the further addition of estradiol or of dexamethasone, is presented in FIG. 1. In all three conditions analyzed, the total cell number per culture rose from 0.1×10^6 cells at day 0 to 10×10^6 at day 7 and continued to increase, reaching up to 100×10^6 by day 13. […] The total number of erythroid cells obtained at the end of the proliferative-plus-differentiative phase can be calculated by multiplying the total number of cells presented in FIG. 1 by the frequency of benzidinepos cells presented in FIG. 2. […]

| SMILES | percent of benzidine positive cells (mature erythroid cells) (CD34^+ cells [1]) | total number of erythroid cells obtained at end of proliferative-plus-differentiative phase (CD34^+ cells [2]; differentiation started at day 8 of proliferative phase, total cell number multiplied by benzidine^pos frequency) | frequency of benzidine^pos cells after differentiative phase (CD34^+ cells [2]) |
| --- | --- | --- | --- |
| C[C@@H]1C[C@H]2[C@@H]3CCC4=CC(=O)C=C[C@]4(C)[C@@]3(F)[C@@H](O)C[C@]2(C)[C@@]1(O)C(=O)CO [dexamethasone] | < 10% | ≤ 7×10^6 erythroid cells | 80-95% |
| C[C@]12CC[C@@H]3c4ccc(O)cc4CC[C@H]3[C@@H]1CC[C@@H]2O [estradiol] |  |  | 40-60% |
